# Test results taken from the supplement of paper PMC11061612.
# Tests used:
# Experiment in all cases: combination Emax (second highest fraction inhibited in the dose matrix, 72 h); higher = more inhibition; extreme values may be limits of the assay
# [1] = system: LC-1-sq (Squamous Cell Lung Carcinoma)
# In short: (§1)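 After 24 hours at 37°C and 5% CO2 in 1536-well plates, cells in DMEM/F12 or RPMI plus 10% FBS received two-drug dose matrices for 72 hours. Viability came from CellTiter-Glo 2.0 luminescence and was scaled as inhibition, anchored at 0 by vehicle wells and at 1 by blank wells. Combination Emax is taken as the second-highest inhibition in the matrix, and Bliss excess as the observed combination effect less EA + EB − EA·EB, with EA and EB the single-agent effects.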
# [2] = system: OE33 (Esophageal Adenocarcinoma)
# In short: as §1
# [3] = system: Mo-T (Other Blood Carcinomas)
# In short: as §1
# [4] = system: KMRC-1 (Kidney Carcinoma)
# In short: as §1
# [5] = system: DU-145 (Prostate Carcinoma)
# In short: as §1
# [6] = system: NCI-H522 (Lung Adenocarcinoma)
# In short: as §1
# [7] = system: ML-2 (Acute Myeloid Leukemia)
# In short: as §1
# [8] = system: G-401 (Other Solid Carcinomas)
# In short: as §1
# [9] = system: SKN (Other Solid Carcinomas)
# In short: as §1
# SK-N-AS (Neuroblastoma) = system: SK-N-AS (Neuroblastoma)
# In short: as §1
# Hey (Ovarian Carcinoma) = system: Hey (Ovarian Carcinoma)
# In short: as §1
# [10] = system: CADO-ES1 (Ewing's Sarcoma)
# In short: as §1
# [11] = system: HCC2998 (Colorectal Carcinoma)
# In short: as §1
# [12] = system: ALL-SIL (T-Lymphoblastic Leukemia)
# In short: as §1
# [13] = system: NCI-H1355 (Lung Adenocarcinoma)
# In short: as §1
# [14] = system: COLO-668 (Small Cell Lung Carcinoma)
# In short: as §1
# [15] = system: SW982 (Other Solid Carcinomas)
# In short: as §1
# [16] = system: EJM (Plasma Cell Myeloma)
# In short: as §1
# [17] = system: Ca-Ski (Cervical Carcinoma)
# In short: as §1
# [18] = system: EFO-21 (Ovarian Carcinoma)
# In short: as §1
Compound,combination Emax [1],combination Emax [2],combination Emax [3],combination Emax [4],combination Emax [5],combination Emax [6],combination Emax [7],combination Emax [8],combination Emax [9],combination Emax (SK-N-AS (Neuroblastoma)),combination Emax (Hey (Ovarian Carcinoma)),combination Emax [10],combination Emax [11],combination Emax [12],combination Emax [13],combination Emax [14],combination Emax [15],combination Emax [16],combination Emax [17],combination Emax [18]
"Cn1cnc2c(F)c(Nc3ccc(Br)cc3Cl)c(C(=O)NOCCO)cc21 [Selumetinib] + C[C@@H]1COCCN1C2=NC(=NC(=C2)C3(CC3)[S@](=N)(=O)C)C4=C5C=CNC5=NC=C4 [AZD6738] (first compound max 10 µM, 7x7, partner max 10 µM)",0.684,0.775,0.362,0.373,0.347,0.0701,0.982,0.684,0.423,0.817,0.748,0.822,0.899,0.934,0.596,0.735,0.593,0.855,0.638,0.255
"CC(=O)Nc1cccc(-n2c(=O)n(C3CC3)c(=O)c3c(Nc4ccc(I)cc4F)n(C)c(=O)c(C)c32)c1 [Trametinib] + Cc1nc(-c2cn3c(n2)-c2ccc(-c4cnn(C(C)(C)C(N)=O)c4)cc2OCC3)n(C(C)C)n1 [Taselisib] (first compound max 1 µM, 7x7, partner max 10 µM)",0.722,0.84,0.524,0.748,0.411,0.245,0.968,0.958,0.676,0.73,0.893,0.245,0.928,0.831,0.69,0.96,0.83,0.488,0.816,0.618
"CC1(C)CCC(CN2CCN(c3ccc(C(=O)NS(=O)(=O)c4ccc(NCC5CCOCC5)c([N+](=O)[O-])c4)c(Oc4cnc5[nH]ccc5c4)c3)CC2)=C(c2ccc(Cl)cc2)C1 [Venetoclax] + C1CN(CCC1(C(=O)N[C@@H](CCO)C2=CC=C(C=C2)Cl)N)C3=NC=NC4=C3C=CN4 [Capivasertib] (first compound max 1 µM, 7x7, partner max 3 µM)",0.198,0.184,0.604,0.368,0.2,0.133,0.933,0.518,0.42,0.203,0.24,0.667,0.298,0.687,0.268,0.469,0.256,0.255,0.415,0.222
"CC1(C)CCC(CN2CCN(c3ccc(C(=O)NS(=O)(=O)c4ccc(NCC5CCOCC5)c([N+](=O)[O-])c4)c(Oc4cnc5[nH]ccc5c4)c3)CC2)=C(c2ccc(Cl)cc2)C1 [Venetoclax] + C=CCn1c(=O)c2cnc(Nc3ccc(N4CCN(C)CC4)cc3)nc2n1-c1cccc(C(C)(C)O)n1 [AZD1775] (first compound max 1 µM, partner max 1 µM)",0.689,0.623,0.629,0.394,0.349,0.289,1,0.83,0.556,0.953,0.667,0.68,0.599,1,0.607,0.943,0.742,0.928,0.836,0.581
"CC1(C)CCC(CN2CCN(c3ccc(C(=O)NS(=O)(=O)c4ccc(NCC5CCOCC5)c([N+](=O)[O-])c4)c(Oc4cnc5[nH]ccc5c4)c3)CC2)=C(c2ccc(Cl)cc2)C1 [Venetoclax] + CCN(CCO)CCCOc1ccc2c(Nc3cc(CC(=O)Nc4cccc(F)c4)[nH]n3)ncnc2c1 [AZD2811] (first compound max 1 µM, 7x7, partner max 1 µM)",0.226,0.174,0.611,0.158,0.157,0.217,0.998,0.483,0.242,0.434,0.266,0.755,0.121,1,0.323,0.618,0.55,0.261,0.346,0.375
"CC1(C)CCC(CN2CCN(c3ccc(C(=O)NS(=O)(=O)c4ccc(NCC5CCOCC5)c([N+](=O)[O-])c4)c(Oc4cnc5[nH]ccc5c4)c3)CC2)=C(c2ccc(Cl)cc2)C1 [Venetoclax] + CN(C)CCCOc1ccc(-c2ccc3ncc4c(c3c2)n(C2CCOCC2)c(=O)n4C)cn1 [AZD0156] (first compound max 1 µM, 7x7, partner max 1 µM)",0.192,0.219,0.558,0.0988,0.0977,0.141,0.822,0.35,0.235,0.17,0.216,0.692,0.105,0.628,0.296,0.452,0.2,0.159,0.369,0.29
"CC1(C)CCC(CN2CCN(c3ccc(C(=O)NS(=O)(=O)c4ccc(NCC5CCOCC5)c([N+](=O)[O-])c4)c(Oc4cnc5[nH]ccc5c4)c3)CC2)=C(c2ccc(Cl)cc2)C1 [Venetoclax] + COc1cc(Nc2ncc3c(n2)-c2ccc(Cl)cc2C(c2c(F)cccc2OC)=NC3)ccc1C(=O)O [Alisertib] (first compound max 1 µM, 7x7, partner max 10 µM)",0.275,0.314,0.71,0.384,0.268,0.277,0.988,0.657,0.577,0.818,0.61,0.957,0.225,1,0.473,0.474,0.606,0.146,0.64,0.359
"CC1(C)CCC(CN2CCN(c3ccc(C(=O)NS(=O)(=O)c4ccc(NCC5CCOCC5)c([N+](=O)[O-])c4)c(Oc4cnc5[nH]ccc5c4)c3)CC2)=C(c2ccc(Cl)cc2)C1 [Venetoclax] + C[C@@H]1COCCN1C2=NC(=NC(=C2)C3(CC3)[S@](=N)(=O)C)C4=C5C=CNC5=NC=C4 [AZD6738] (first compound max 1 µM, 7x7, partner max 10 µM)",0.672,0.773,0.735,0.486,0.537,0.161,1,0.703,0.491,0.896,0.774,0.952,0.779,1,0.696,0.877,0.676,0.869,0.581,0.444
"CC1(C)CCC(CN2CCN(c3ccc(C(=O)NS(=O)(=O)c4ccc(NCC5CCOCC5)c([N+](=O)[O-])c4)c(Oc4cnc5[nH]ccc5c4)c3)CC2)=C(c2ccc(Cl)cc2)C1 [Venetoclax] + C[C@@H](Nc1cc(F)cc(F)c1)c1cc(C(=O)N(C)C)cc2c(=O)cc(N3CCOCC3)oc12 [AZD8186] (first compound max 1 µM, 7x7, partner max 3 µM)",0.187,0.211,0.632,0.532,0.153,0.0652,0.983,0.345,0.456,0.0826,0.139,0.625,0.145,0.637,0.196,0.438,0.382,0.278,0.114,0.248
"CC1(C)CCC(CN2CCN(c3ccc(C(=O)NS(=O)(=O)c4ccc(NCC5CCOCC5)c([N+](=O)[O-])c4)c(Oc4cnc5[nH]ccc5c4)c3)CC2)=C(c2ccc(Cl)cc2)C1 [Venetoclax] + Cc1cc2ncnn2cc1Nc1ncc2c(n1)n(C1CCOCC1)c(=O)n2C [AZD7648] (first compound max 1 µM, 7x7, partner max 10 µM)",0.242,0.154,0.616,0.181,0.137,0.112,0.823,0.424,0.257,0.295,0.328,0.703,0.109,0.658,0.346,0.447,0.27,0.238,0.209,0.28
"CC1(C)CCC(CN2CCN(c3ccc(C(=O)NS(=O)(=O)c4ccc(NCC5CCOCC5)c([N+](=O)[O-])c4)c(Oc4cnc5[nH]ccc5c4)c3)CC2)=C(c2ccc(Cl)cc2)C1 [Venetoclax] + Cn1cnc2c(F)c(Nc3ccc(Br)cc3Cl)c(C(=O)NOCCO)cc21 [Selumetinib] (first compound max 1 µM, 7x7, partner max 3 µM)",0.236,0.174,0.618,0.135,0.184,0.0772,1,0.33,0.136,0.647,0.55,0.632,0.683,0.679,0.273,0.787,0.242,0.0906,0.219,0.264
